Measured values published in the supplement of paper PMC10307832.

How the values were obtained:
Test in all cases: relative viability (nuclei count vs DMSO), 5 days (fraction); higher = more cells survive
[1] = compound: COc1cc2c(Oc3ccc4[nH]c(C)cc4c3F)ncnc2cc1OCCCN1CCCC1 [Cediranib] + COc1cccc2cc(-c3nc([C@H]4CC[C@H](C(=O)O)CC4)n4ncnc(N)c34)[nH]c12 [OSI-027] (partner 0.5 µM)
Outline: (§1)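 Relative viability equals treated-well nuclei counts divided by vehicle-well nuclei counts. Counts came from 4× images of lung cancer cell lines grown in 1536-well plates for 5 days after pin-tool dosing on the day after seeding. Dosing used one drug alone or a fixed anchor-drug dose plus five library-drug doses (not always all listed) in √10 steps, and values are medians of duplicate plates.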

[2] = compound: COc1cc2c(Oc3ccc4[nH]c(C)cc4c3F)ncnc2cc1OCCCN1CCCC1 [Cediranib] + Cc1nc(NC(=O)N2CCC[C@H]2C(N)=O)sc1-c1ccnc(C(C)(C)C(F)(F)F)c1 [Alpelisib] (partner 2 µM)
Outline: as §1

[3] = compound: Nc1ncn([C@H]2C[C@H](O)[C@@H](CO)O2)c(=O)n1 [Decitabine] + O=C(CCCCCCC(=O)Nc1ccccc1)NO [Vorinostat] (partner 1 µM)
Outline: as §1

[4] = compound: O=C(C[C@H]1NCCC[C@@H]1O)Cn1cnc2cc(Br)c(Cl)cc2c1=O (racemic) [Halofuginone] + CS(=O)(=O)CCNCc1ccc(-c2ccc3ncnc(Nc4ccc(OCc5cccc(F)c5)c(Cl)c4)c3c2)o1 [Lapatinib] (partner 2 µM)
Outline: as §1

Cell Line | relative viability ([1]; first compound 0.04 µM) | relative viability ([1]; first compound 0.1265 µM) | relative viability ([1]; first compound 0.4 µM) | relative viability ([1]; first compound 1.265 µM) | relative viability ([1]; first compound 4 µM) | relative viability ([2]; first compound 0.04 µM) | relative viability ([2]; first compound 0.4 µM) | relative viability ([2]; first compound 1.265 µM) | relative viability ([2]; first compound 4 µM) | relative viability ([3]; first compound 0.04 µM) | relative viability ([3]; first compound 0.1265 µM) | relative viability ([3]; first compound 0.4 µM) | relative viability ([3]; first compound 1.265 µM) | relative viability ([3]; first compound 4 µM) | relative viability ([4]; first compound 0.001 µM) | relative viability ([4]; first compound 0.003162 µM) | relative viability ([4]; first compound 0.01 µM) | relative viability ([4]; first compound 0.03162 µM) | relative viability ([4]; first compound 0.1 µM) | relative viability ([2]; first compound 0.1265 µM)
HOP-62 | 0.78 | 0.813 | 0.771 | 0.677 | 0.791 | 1.16 | 0.74 | 0.96 | 1.18 | 0.348 | 0.316 | 0.161 | 0.123 | 0.11 | 0.983 | 1.09 | 0.936 | 0.791 | 0.948 | –
LK-2 | 0.181 | 0.192 | 0.22 | 0.175 | 0.201 | 1.36 | 1.13 | 1.11 | 0.475 | 0.229 | 0.268 | 0.285 | 0.204 | 0.208 | 1.01 | 0.801 | 0.951 | 0.891 | 0.778 | 1.01
SW 1573 | 0.682 | 0.644 | 0.604 | 0.427 | 0.662 | 0.586 | 0.655 | 0.619 | 0.79 | 0.515 | 0.601 | 0.458 | 0.325 | 0.206 | 1.13 | 1.29 | 1.1 | 1.1 | 1.07 | 0.834
SK-LU-1 | 0.343 | 0.39 | 0.338 | 0.257 | 0.33 | 0.753 | 0.958 | 0.933 | 1.01 | 0.611 | 0.65 | 0.443 | 0.453 | 0.433 | 0.945 | 1.04 | 0.806 | 0.787 | 0.505 | 1.2
NCI-H23 | 0.511 | – | 0.557 | 0.511 | 0.582 | 0.625 | 0.667 | 0.7 | 0.734 | 0.281 | 0.301 | 0.256 | 0.176 | 0.179 | 1.28 | 1.03 | 1.2 | 0.713 | 0.707 | –
NCI-H1355 | 0.38 | 0.363 | 0.387 | 0.34 | 0.449 | 0.993 | 0.704 | 0.838 | 0.956 | 0.496 | 0.554 | 0.34 | 0.3 | 0.256 | 1.03 | 1.03 | 0.972 | 0.984 | 0.891 | 0.879
COR-L23 | 0.913 | 0.767 | 0.738 | 0.675 | 0.872 | 0.916 | 0.816 | 0.829 | 0.815 | 0.258 | 0.259 | 0.184 | 0.132 | 0.126 | 0.924 | 1.06 | 0.95 | 1.01 | 0.379 | 0.788
NCI-H2023 | 0.342 | 0.402 | 0.374 | 0.385 | 0.415 | 0.667 | 0.58 | 0.559 | 0.667 | 0.305 | 0.389 | 0.23 | 0.142 | 0.119 | 0.8 | 0.809 | 0.874 | 0.494 | 0.0821 | 0.706
A-427 | 0.515 | – | 0.339 | 0.361 | 0.405 | 1.04 | 1.08 | 1.01 | 1.08 | 0.789 | 0.732 | 0.526 | 0.411 | 0.396 | 1.08 | 0.977 | 1.01 | 1.07 | 1.07 | –
NCI-H1793 | 0.271 | 0.276 | 0.245 | – | 0.301 | 0.683 | 0.64 | – | 0.788 | 0.462 | 0.631 | 0.552 | 0.382 | 0.325 | 0.775 | 0.832 | 0.707 | 0.811 | 0.589 | 0.694
NCI-H596 | 0.775 | 0.815 | 0.723 | – | 0.788 | 0.489 | 0.478 | 0.509 | 0.577 | 0.613 | 0.618 | 0.553 | 0.51 | 0.507 | 1.06 | 1.18 | 1.02 | 1.07 | 0.661 | 0.481
LU99A | 0.281 | 0.314 | 0.305 | 0.286 | 0.288 | 0.567 | 0.489 | 0.49 | 0.589 | 0.469 | 0.513 | 0.523 | 0.453 | 0.397 | 0.985 | 0.965 | 0.892 | 0.934 | 0.607 | –
NCI-H2009 | 0.548 | 0.538 | 0.658 | 0.518 | 0.639 | 1.18 | 1.09 | 1.16 | 1.14 | 0.474 | 0.446 | 0.356 | 0.285 | 0.335 | 1.06 | 1.01 | 0.887 | 0.83 | 0.409 | 1.13
